Experimental findings from patent publication US20060247263A1, “Substituted heterocyclic compounds and methods of use” (Amgen Inc., priority 2005, published 2006) are described below.

The experiment has as its system LPS induced TNF release. Put plainly: Lipopolysaccharide-Activated THP1 Cell TNF Production Assay. Format: cell-based. To be noted: Homo sapiens, THP-1, THP1 cells, 3 h at 37° C., secreted TNF-α. The method, then:
Lipopolysaccharide-Activated THP1 Cell TNF Production Assay
THP1 cells are resuspended in fresh THP1 media (RPMI 1640, 10% heat-inactivated FBS, 1XPGS, 1XNEAA, plus 30 μM βME) at a concentration of 1E6/mL. One hundred microliters of cells per well are plated in a polystyrene 96-well tissue culture. One microgram per mL of bacterial LPS is prepared in THP1 media and is transferred to the wells. Test compounds are dissolved in 100% DMSO and are serially diluted 3 fold in a polypropylene 96-well microtiter plate (drug plate). HI control and LO control wells contain only DMSO. One microliter of test compound from the drug plate followed by 10 μL of LPS are transferred to the cell plate. The treated cells are induced to synthesize and secrete TNF-α at 37° C. for 3 h. Forty microliters of conditioned media are transferred to a 96-well polypropylene plate containing 110 μL of ECL buffer (50 mM Tris-HCl pH 8.0, 100 mM NaCl, 0.05% Tween 20, 0.05% NaN3 and 1% FBS) supplemented with 0.44 nM MAB610 monoclonal Ab (R&D Systems), 0.34 nM ruthenylated AF210NA polyclonal Ab (R&D Systems) and 44 μg/mL sheep anti-mouse M280 Dynabeads (Dynal). After a 2 h incubation at RT with shaking, the reaction is read on the ECL M8 Instrument (IGEN Inc.). A low voltage is applied to the ruthenylated TNF-α immune complexes, which in the presence of TPA (the active component in Origlo), results in a cyclical redox reaction generating light at […]. The amount of secreted TNF-α in the presence of compound compared with that in the presence of DMSO vehicle alone (HI control) is calculated using the formula:% control (POC)=(cpd−average LO)/(average HI−average LO)*100. Data (consisting of POC and inhibitor concentration in μM) is fitted to a 4-parameter equation (y=A+((B−A)/(1+((x/C)ˆD))), where A is the minimum y (POC) value, B is the maximum y (POC), C is the x (cpd concentration) at the point of inflection and D is the slope factor) using a Levenburg-Marquardt non-linear regression algorithm.
With `CN(c1cc(-c2ccccc2)c2ncn(C)c2c1)c1ccnc(NC2CCNCC2)n1`, the IC50 (commonly the point on the concentration scale where inhibition reaches its midpoint) was no more than 20 µM.
For the compound `CC(Cc1cccc(CO)c1)Nc1nccc(N(C)c2cc(-c3ccccc3)c3ncn(C)c3c2)n1` (stereo not shown) [(3-(2-(4-(Methyl(3-methyl-7-phenyl-3H-benzo[d]imidazol-5-yl)amino)pyrimidin-2-ylamino)propyl)phenyl)methanol], the IC50 is no more than 20 µM.
Consider `CC(Cc1cccc(CN)c1)Nc1nccc(N(C)c2cc(-c3ccccc3)c3ncn(C)c3c2)n1` (stereo not shown) [N2-(1-(3-(Aminomethyl)phenyl)propan-2-yl)-N-4-methyl-N-4-(3-methyl-7-phenyl-3H-benzo[d]imidazol-5-yl)pyrimidine-2,4-diamine], for which the IC50 is no more than 20 µM.
To `CC(Cc1cccc(CN=[N+]=[N-])c1)Nc1nccc(N(C)c2cc(-c3ccccc3)c3ncn(C)c3c2)n1` (stereo not shown) [N2-(1-(3-(Azidomethyl)phenyl)propan-2-yl)-N-4-methyl-N-4-(3-methyl-7-phenyl-3H-benzo[d]imidazol-5-yl)pyrimidine-2,4-diamine] belongs no more than 20 µM.
Regarding `CC(Cc1cccc(CN)c1)Nc1nccc(N(C)c2cc(-c3ccccc3)c3c(c2)ncn3C)n1` (stereo not shown) [N2-(1-(3-(aminomethyl)phenyl)propan-2-yl)-N-4-methyl-N-4-(1-methyl-7-phenyl-1H-benzo[d]imidazol-5-yl)pyrimidine-2,4-diamine], the IC50 is no more than 20 µM.
To `CN(c1cc(-c2ccccc2)c2ncn(C)c2c1)c1ccnc(NCCc2ccccc2Cl)n1` [N2-(2-chlorophenethyl)-N-4-methyl-N-4-(3-methyl-7-phenyl-3H-benzo[d]imidazol-5-yl)pyrimidine-2,4-diamine] belongs no more than 20 µM.
On to `CN(c1cc(-c2ccccc2)c2ncn(C)c2c1)c1ccnc(NC2CCC(N)CC2)n1` (stereo not shown) [N2-((1 s,4s)-4-aminocyclohexyl)-N-4-methyl-N-4-(3-methyl-7-phenyl-3H-benzo[d]imidazol-5-yl)pyrimidine-2,4-diamine], for which the 50% inhibitory concentration (IC50) is no more than 20 µM.
`C[C@H](N)c1cccc(C[C@H](C)Nc2nccc(N(C)c3cc(-c4ccccc4)c4ncn(C)c4c3)n2)c1` [N2-((S)-1-(3-((S)-1-Aminoethyl)phenyl)propan-2-yl)-N-4-methyl-N-4-(3-methyl-7-phenyl-3H-benzo[d]imidazol-5-yl)pyrimidine-2,4-diamine] had an IC50 of no more than 20 µM.
To `CC(C)CNc1nccc(N(C)c2cc(-c3ccccc3)c3ncn(C)c3c2)n1` [N2-isobutyl-N-4-methyl-N-4-(3-methyl-7-phenyl-3H-benzo[d]imidazol-5-yl)-pyrimidine-2,4-diamine] belongs no more than 20 µM.
`CN(c1cc(-c2ccccc2)c2nc[nH]c2c1)c1ccnc(NCCc2cccnc2)n1` [N4-Methyl-N-4-(7-phenyl-3H-benzo[d]imidazol-5-yl)-N-2-(2-(pyridin-3-yl)ethyl)-pyrimidine-2,4-diamine] gave an IC50 of no more than 20 µM.
To `CN(c1cc(-c2ccccc2)c2ncn(C)c2c1)c1ccnc(NCCc2cccnc2)n1` [N4-methyl-N-4-(3-methyl-7-phenyl-3H-benzo[d]imidazol-5-yl)-N-2-(2-(pyridin-3-yl)ethyl)pyrimidine-2,4-diamine] belongs no more than 20 µM.
To `CN(c1cc(-c2ccccc2)c2ncn(C)c2c1)c1ccnc(NCCOc2ccccc2)n1` [N-4-methyl-N-4-(3-methyl-7-phenyl-3H-benzo[d]imidazol-5-yl)-N-2-(2-phenoxy-ethyl)pyrimidine-2,4-diamine] belongs no more than 20 µM; to `CN(c1cc(-c2ccccc2)c2ncn(C)c2c1)c1ccnc(NC2CCN(C(=O)OC(C)(C)C)CC2)n1` [tert-Butyl 4-(4-(methyl(3-methyl-7-phenyl-3H-benzo[d]imidazol-5-yl)amino)-pyrimidin-2-ylamino)piperidine-1-carboxylate], no more than 20 µM.
